The values that follow come from patent US20230033285A1, “Protease Inhibitors for Treatment of Coronavirus Infections” (The Scripps Research Institute, priority 2021, published 2023).

The test system of the first test is SARS-CoV-2. Put plainly: microbe, parasite or virus in culture. The format is cell-based. The settings on record: Severe acute respiratory syndrome coronavirus 2, HeLa-ACE2, 24 h, read-out: EC50, μM (Hela).
As usually defined, the EC50 is the concentration giving half of the maximal effect. On to `CC1(C)[C@@H]2[C@@H](C(=O)N[C@H](C#N)C[C@@H]3CCCNC3=O)N(C(=O)[C@@H](NC(=O)C(F)(F)F)C3CCOCC3)C[C@@H]21` [Compound 68, (1R,2S,5S)-N-((S)-1-cyano-2-((S)-2-oxopiperidin-3-yl)ethyl)-6,6-dimethyl-3-((S)-2-(tetrahydro-2H-pyran-4-yl)-2-(2,2,2-trifluoroacetamido)acetyl)-3-azabicyclo[3.1.0]hexane-2-carboxamide], for which the EC50 is more than 1 µM.

The test is the same for the next values; noted with them: Severe acute respiratory syndrome coronavirus 2; HeLa-ACE2 cells infected with SARS-CoV-2, 24 h, immunofluorescence of infected cells; read-out: EC50, μM (Hela).
Consider `CC(C)(C)NC(=O)C(=O)N1C[C@@H]2CCC[C@@H]2[C@H]1C(=O)N[C@@H](C[C@@H]1CCCNC1=O)C(=O)CO` [Compound 32, (1S,3aR,6aS)-2-(2-(tert-butylamino)-2-oxoacetyl)-N-((S)-4-hydroxy-3-oxo-1-((S)-2-oxopiperidin-3-yl)butan-2-yl)octahydrocyclopenta[c]pyrrole-1-carboxamide], for which the EC50 was in the range of 0.5 to 1 µM.
For the molecule `O=C(Nc1ccccc1F)C(=O)N[C@@H](CC1CC1)C(=O)N[C@@H](C[C@@H]1CCCNC1=O)C(=O)CO` [Compound 90, N^1-((S)-3-cyclopropyl-1-(((S)-4-hydroxy-3-oxo-1-((S)-2-oxopiperidin-3-yl)butan-2-yl)amino)-1-oxopropan-2-yl)-N^2-(2-fluorophenyl)oxalamide], the EC50 is less than 0.05 µM.
As for `CC1(C)[C@@H]2[C@@H](C(=O)N[C@H](C#N)C[C@@H]3CCCNC3=O)N(C(=O)c3ccnc(C(F)(F)F)c3)C[C@@H]21` [Compound 130, (1R,2S,5S)-N-((S)-1-cyano-2-((S)-2-oxopiperidin-3-yl)ethyl)-6,6-dimethyl-3-(2-(trifluoromethyl)isonicotinoyl)-3-azabicyclo[3.1.0]hexane-2-carboxamide], the EC50 was more than 1 µM.
Still for that read-out and setting: the value for `CC(C)(C)C[C@H](NC(=O)C(=O)Nc1cccc(C(F)(F)F)c1)C(=O)N[C@@H](CC1CCCNC1=O)C(=O)CO` (stereo partly shown) [Compound 99] was less than 0.05 µM; that for `CC(C)C[C@H](NC(=O)C(=O)NCC(F)(F)F)C(=O)N[C@@H](C[C@@H]1CCNC1=O)C(=O)CO` [Compound 26] was more than 1 µM.
Still for that read-out and setting: the value for `CCCCCCC(=O)OCC(=O)[C@H](C[C@@H]1CCNC1=O)NC(=O)[C@H](CC1CCCCC1)NC(=O)C(=O)NC1CCCCC1` [Compound 19, (S)-3-((S)-3-cyclohexyl-2-(2-(cyclohexylamino)-2-oxoacetamido)propanamido)-2-oxo-4-((S)-2-oxopyrrolidin-3-yl)butyl heptanoate] was 0.2 to 0.5 µM; that for `O=C(Nc1ccccc1F)C(=O)N[C@@H](CC1CCCCC1)C(=O)N[C@@H](C[C@@H]1CCCNC1=O)C(=O)CO` [Compound 24, N^1-((S)-3-cyclohexyl-1-(((S)-4-hydroxy-3-oxo-1-((S)-2-oxopiperidin-3-yl)butan-2-yl)amino)-1-oxopropan-2-yl)-N^2-(2-fluorophenyl)oxalamide] was 0.05 to 0.2 µM.
Same read-out and setting: the value for `CC(C)(C)C[C@H](NC(=O)C(=O)Nc1ccccc1C(F)(F)F)C(=O)N[C@H](C[C@@H]1CCCNC1=O)C(=O)CO` [Compound 133, N^1-((S)-1-(((R)-4-hydroxy-3-oxo-1-((S)-2-oxopiperidin-3-yl)butan-2-yl)amino)-4,4-dimethyl-1-oxopentan-2-yl)-N^2-(2-(trifluoromethyl)phenyl)oxalamide] was more than 1 µM; that for `CC(C)C[C@H](NC(=O)OCc1cccc(Cl)c1)C(=O)N[C@@H](C[C@@H]1CCNC1=O)C(=O)CO` [Compound 122, 3-chlorobenzyl ((S)-1-(((S)-4-hydroxy-3-oxo-1-((S)-2-oxopyrrolidin-3-yl)butan-2-yl)amino)-4-methyl-1-oxopentan-2-yl)carbamate] was more than 1 µM; that for `CC(=O)OCC(=O)[C@H](C[C@@H]1CCCNC1=O)NC(=O)[C@H](CC(C)C)NC(=O)C(=O)Nc1ccccc1F` [Compound 105, (S)-3-((S)-2-(2-((2-fluorophenyl)amino)-2-oxoacetamido)-4-methylpentanamido)-2-oxo-4-((S)-2-oxopiperidin-3-yl)butyl acetate] was 0.05 to 0.2 µM.
Consider `Cc1ccccc1NC(=O)C(=O)N[C@@H](CC1CC1)C(=O)N[C@@H](C[C@@H]1CCCNC1=O)C(=O)CO` [Compound 88, N^1-((S)-3-cyclopropyl-1-(((S)-4-hydroxy-3-oxo-1-((S)-2-oxopiperidin-3-yl)butan-2-yl)amino)-1-oxopropan-2-yl)-N^2-(o-tolyl)oxalamide], for which the EC50 is less than 0.05 µM.
As to `CC(C)C[C@H](NC(=O)C(=O)Nc1ccccc1F)C(=O)N[C@@H](C[C@@H]1CCCNC1=O)C(=O)CO` [Compound 21, N^1-(2-fluorophenyl)-N^2-((S)-1-(((S)-4-hydroxy-3-oxo-1-((S)-2-oxopiperidin-3-yl)butan-2-yl)amino)-4-methyl-1-oxopentan-2-yl)oxalamide], the 50% effective concentration (EC50) fell in the range of 0.05 to 0.2 µM.
The same measure, in the same setting: the value for `CC(C)C[C@H](NC(=O)C(=O)Nc1ccccc1F)C(=O)N[C@H](C#N)C[C@@H]1CCNC1=O` [Compound 58] was 0.5 to 1 µM; that for `Cc1ccccc1NC(=O)C(=O)N[C@@H](CC(C)C)C(=O)N[C@H](C=O)C[C@@H]1CCNC1=O` [Compound 38, N^1-((S)-4-methyl-1-oxo-1-(((S)-1-oxo-3-((S)-2-oxopyrrolidin-3-yl)propan-2-yl)amino)pentan-2-yl)-N^2-(o-tolyl)oxalamide] was 0.05 to 0.2 µM.
In the case of `COc1ccccc1NC(=O)C(=O)N[C@@H](CC(C)C)C(=O)N[C@@H](C[C@@H]1CCNC1=O)C(=O)CO` [Compound 7], the EC50 was more than 1 µM.
Same read-out and setting: the value for `CC(C)C[C@H](NC(=O)C(=O)NC1(C)CC1)C(=O)N[C@@H](C[C@@H]1CCCNC1=O)C(=O)CO` [Compound 29, N^1-((S)-1-(((S)-4-hydroxy-3-oxo-1-((S)-2-oxopiperidin-3-yl)butan-2-yl)amino)-4-methyl-1-oxopentan-2-yl)-N^2-(1-methylcyclopropyl)oxalamide] was more than 1 µM; that for `COc1cccc2[nH]c(C(=O)N[C@@H](CC(C)C)C(=O)N[C@@H](C[C@@H]3CCNC3=O)C(=O)CO)cc12` [Compound 1, N-((S)-1-(((S)-4-hydroxy-3-oxo-1-((S)-2-oxopyrrolidin-3-yl)butan-2-yl)amino)-4-methyl-1-oxopentan-2-yl)-4-methoxy-1H-indole-2-carboxamide] was 0.2 to 0.5 µM; that for `O=C(Nc1ccccc1F)C(=O)N[C@@H](CC1CCCCC1)C(=O)N[C@H](C[C@@H]1CCCNC1=O)C(=O)CO` [Compound 25, N^1-((S)-3-cyclohexyl-1-(((R)-4-hydroxy-3-oxo-1-((S)-2-oxopiperidin-3-yl)butan-2-yl)amino)-1-oxopropan-2-yl)-N^2-(2-fluorophenyl)oxalamide] was 0.05 to 0.2 µM.
Still for that read-out and setting: the value for `CCCCCCCCCCCCCCC(=O)OCC(=O)[C@H](C[C@@H]1CCNC1=O)NC(=O)[C@H](CC(C)C)NC(=O)c1cc2c(OC)cccc2[nH]1` [Compound 137, (S)-3-((S)-2-(4-methoxy-1H-indole-2-carboxamido)-4-methylpentanamido)-2-oxo-4-((S)-2-oxopyrrolidin-3-yl)butyl pentadecanoate] was 0.2 to 0.5 µM; that for `O=C[C@H](C[C@@H]1CCNC1=O)NC(=O)[C@@H]1[C@H]2CCC[C@H]2CN1C(=O)C(=O)Nc1ccccc1F` [Compound 44, (1S,3aR,6aS)-2-(2-((2-fluorophenyl)amino)-2-oxoacetyl)-N-((S)-1-oxo-3-((S)-2-oxopyrrolidin-3-yl)propan-2-yl)octahydrocyclopenta[c]pyrrole-1-carboxamide] was more than 1 µM; that for `CC(C)C[C@H](NC(=O)C(=O)Nc1ccccc1F)C(=O)N[C@H](C=O)C[C@@H]1CCNC1=O` [Compound 39, N^1-(2-fluorophenyl)-N^2-((S)-4-methyl-1-oxo-1-(((S)-1-oxo-3-((S)-2-oxopyrrolidin-3-yl)propan-2-yl)amino)pentan-2-yl)oxalamide] was 0.05 to 0.2 µM.
On the same count and under the same terms, the value for `COc1cccc(OC)c1NC(=O)C(=O)N[C@@H](CC(C)C)C(=O)N[C@@H](C[C@@H]1CCNC1=O)C(=O)CO` [Compound 15, N^1-(2,6-dimethoxyphenyl)-N^2-((S)-1-(((S)-4-hydroxy-3-oxo-1-((S)-2-oxopyrrolidin-3-yl)butan-2-yl)amino)-4-methyl-1-oxopentan-2-yl)oxalamide] was more than 1 µM.
`CC(C)(C)C[C@H](NC(=O)C(=O)NC12CC(F)(C1)C2)C(=O)N[C@@H](C[C@@H]1CCNC1=O)C(=O)CO` [Compound 22, N^1-(3-fluorobicyclo[1.1.1]pentan-1-yl)-N^2-((S)-1-(((S)-4-hydroxy-3-oxo-1-((S)-2-oxopyrrolidin-3-yl)butan-2-yl)amino)-4,4-dimethyl-1-oxopentan-2-yl)oxalamide]: the half-maximal effective concentration (EC50) fell in the range of 0.2 to 0.5 µM.
On the same count and under the same terms, the value for `COc1cccc(C)c1NC(=O)C(=O)N[C@@H](CC(C)C)C(=O)N[C@@H](C[C@@H]1CCNC1=O)C(=O)CO` [Compound 16, N^1-((S)-1-(((S)-4-hydroxy-3-oxo-1-((S)-2-oxopyrrolidin-3-yl)butan-2-yl)amino)-4-methyl-1-oxopentan-2-yl)-N^2-(2-methoxy-6-methylphenyl)oxalamide] was 0.2 to 0.5 µM; that for `Cc1cccc(C)c1NC(=O)C(=O)N[C@@H](CC(C)C)C(=O)NC(C[C@@H]1CCNC1=O)C(=O)CO` (stereo partly drawn) [Compound 13, N^1-(2,6-dimethylphenyl)-N^2-((2S)-1-((4-hydroxy-3-oxo-1-((S)-2-oxopyrrolidin-3-yl)butan-2-yl)amino)-4-methyl-1-oxopentan-2-yl)oxalamide] was 0.2 to 0.5 µM; that for `Cc1ccccc1NC(=O)C(=O)N1C[C@@H]2CCC[C@@H]2[C@H]1C(=O)N[C@@H](C[C@@H]1CCCNC1=O)C(=O)CO` [Compound 91, (1S,3aR,6aS)-N-((S)-4-hydroxy-3-oxo-1-((S)-2-oxopiperidin-3-yl)butan-2-yl)-2-(2-oxo-2-(o-tolylamino)acetyl)octahydrocyclopenta [c]pyrrole-1-carboxamide] was 0.05 to 0.2 µM.
The same measure, in the same setting: the value for `CC(C)(C)C[C@H](NC(=O)C(=O)Nc1cccc(C(F)(F)F)n1)C(=O)N[C@@H](C[C@@H]1CCCNC1=O)C(=O)CO` [Compound 112] was 0.5 to 1 µM.
